Laboratory results taken from EP0526502B1, “PHENOLIC AMINE DEPIGMENTING AND ANTIMELANOMA AGENTS” (The Governors of the University of Alberta, priority 1990, dated 1991).
Where “and” joins values, the source holds several entries; their conditions need not be identical. Identical values can stand only once.

How the values were obtained:
Mushroom tyrosinase = Mushroom tyrosinase (Agaricus bisporus, UniProt C7FF04); experiment: Enzyme kinetics with tyrosinase (substrate disappearance by HPLC, Lineweaver-Burk); format: biochemical; conditions: result in words
Method: Mushroom tyrosinase (400 units/mg) and plasma MAO (1000 units/gm) were obtained from Sigma Chemical Co. (St. Louis, MO, USA). A reaction mixture consisted of a substrate of 7 to 8 different concentrations (40 to 500 »M for mushroom tyrosinase and 20 to 200 »M for MAO) and of either mushroom tyrosinase (2.5 »g) or MAO (10 »g) in 1.0 mL of 0.05 M sodium phosphate buffer, pH 6.8 and 7.4 respectively. The reactions were carried out at 37°C in a shaking water bath, and stopped by taking 100 »L of the reaction mixture and adding it to 900 »L of 0.4 M HCLO₄. The disappearance of substrate was followed using HPLC (high pressure liquid chromatography) Km and Vmax values were calculated from the Lineweaver-Burk plots.

B16F10 melanoma = experiment: Melanoma-colony formation in the lungs; format: in vivo, mice; conditions: 900 mg/kg i.p. daily for 14 days from day five; lungs excised day 26
Method: Murine B16F10 melanoma cell line with a strong metastatic property to form tumour colonies in the lungs was obtained from Dr. Longenecker, Department of Immunology, University of Alberta. Such cell line is well recognized and readily available as reported in Miura et al, supra. The cells were grown in T-75 flasks in dulbecco's MEM available from Gipco Lab Inc., Grand Island, New York, supplemented with 10% fetal calf serum, also obtained from Gipco, penicillin (100 »/ml) and streptomycin (100 »g/ml). The cells were incubated at 37°C in humidified atmosphere of 5% CO₂ in air. The cells were harvested by applying a thin layer of 0.25% trypsin solution in EDTA, washed and resuspended in cold N saline solution. Viable cells were identified by trypan blue dye exclusion and counted. The cell suspension was diluted to the desired concentration. Three groups of mice were studied using a control 4-S-CAP and N-Ac-4-S-CAP as the active agents in the treatment. On day zero, the mice were inoculated via the lateral tail vein with 5 x 10⁴ cells in 0.2 ml of N saline. The test drugs were dissolved in normal saline, sterilized by membrane filtration, and administered in a dose of 300 mg/Kg (4-S-CAP) or 900 mg/Kg (N-Ac-4-S-CAP); starting on day five, the control solution or drug was injected i.p. daily for 14 days. On day 26, the mice were killed by cervical dislocation, their lungs were removed, and the number of melanoma colonies was counted under a dissecting microscope. The results were expressed as percentage reduction in the number of colonies: [a - b/a] x 100, where a = colonies in control group and b = colonies in experimental group.

follicular melanocytes = experiment: Depigmentation of new hair after plucking (PTCA/eumelanin content of hair follicles); format: in vivo, C57BL/6J black mice; conditions: for PTCA Content / Depigmentation: 300 mg/kg daily for 14 days, hair harvested day 22; for Depigmentation: 300 mg/kg
Method: Breeding pairs of C57BL/6J black mice were purchased from Jackson Laboratory, Bar Harbor, Maine. Female progeny were used in this testing when approximately 8 weeks old and weighing 17 grams.
Black hairs were plucked manually from the back of the mice to initiate new anagen growth and activate follicular melanocytes with increased tyrosinase activity. Thirty mice were randomized into 6 groups of 5 (1 control and 1 for each compound). Starting on day 1, daily for 14 days the agent was injected i.p. or was infiltrated s.c. in an area where hair follicles had been plucked; the dose was 300 mg/kg body weight.
In the same 30 mice, hair follicles were harvested on day 22 (early telogen phase) and their eumelanin content analyzed. Details of the assay, including chemical degration of melanin and high-performance liquid chromatography (HPLC) were as described in Ito et al, "Quantitative Analysis of Eumelanin and Pheomelanin in Hair and Melanosomes" J. Invest. Dermatol 80:268-272, 1983. Briefly, a 10-mg hair sample is homogenized in water at a concentration of 10 mg/ml; the 200-»l homogenate is transferred to a screw-capped test tube, mixed with 1M H₂SO₄ (800 »L) and oxidized with 3% KMnO₄. The product, pyrrole-2,3,5-tricarboxylic acid (PTCA), is analyzed by HPLC with a UVL detector; samples are measured in duplicate. The eumelanin content is expressed as PTCA (ng/mg) against the PCTA content of BALB/c albino mice as control (≦ 10 ng/mg, the background value with our method, in which 1 ng corresponds roughly to a eumelanin content of 50 ng), and the degree of depigmentation is expressed as a percentage: (PTCA content of control sampleminusPTCA content of experimental sample)/(PCTA content of control sample) x 100 [formula] .

Mushroom tyrosinase, sequence (C7FF04 1-392): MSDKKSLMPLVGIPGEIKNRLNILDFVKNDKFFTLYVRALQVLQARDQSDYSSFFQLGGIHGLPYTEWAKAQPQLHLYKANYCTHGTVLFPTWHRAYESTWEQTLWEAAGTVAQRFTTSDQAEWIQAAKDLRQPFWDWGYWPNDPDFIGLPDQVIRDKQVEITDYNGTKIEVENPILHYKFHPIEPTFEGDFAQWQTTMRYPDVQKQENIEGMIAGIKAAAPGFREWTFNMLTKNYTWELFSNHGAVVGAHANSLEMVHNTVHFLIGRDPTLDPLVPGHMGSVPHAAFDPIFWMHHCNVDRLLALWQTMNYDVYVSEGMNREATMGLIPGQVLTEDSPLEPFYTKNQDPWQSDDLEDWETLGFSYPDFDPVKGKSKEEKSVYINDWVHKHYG

SMILES: CC(=O)NCCSc1ccc(O)cc1 [N-Ac-4-S-CAP, N-ACETYL-4-S-CYSTEAMINYLPHENOL]
- tyrosinase substrate (Mushroom tyrosinase): is also a tyrosinase substrate
- No. of Colonies % control (B16F10 melanoma): 25% and 24.9%
- No. of Colonies per pair of lungs (B16F10 melanoma): 21.5 ± 10.8
- PTCA Content (follicular melanocytes; Route s.c.): 30.8 ± 9.1 ng/mg
- Depigmentation (follicular melanocytes; Route s.c.): 97.2%
- PTCA Content (follicular melanocytes; Route: i.p.): 26.0 ± 10.3 ng/mg
- Depigmentation (follicular melanocytes; Route: i.p.): 97.6%
- visible pigmentation of new hair (follicular melanocytes; i.p. or s.c. route, result in words): almost pure white as in albino mice
